Test results taken from patent US7674909B2, “Tetrahydroquinoline derivatives and their use as FSH receptor modulators” (N.V. Organon, priority 2002, dated 2010).

The compounds below were run against T1, human FSH receptor (Homo sapiens, UniProt P23945) (assay: CHO-FSH in vitro bioactivity (CRE-luciferase reporter, agonistic or antagonistic set-up)). Details: CHO cells stably transfected with human FSH receptor and CRE/luciferase reporter; in either an agonistic or an antagonistic (rec-hFSH 10 mU/ml) assay set-up or both / in at least one of the assays; read-out: EC50 (IC50).
T1 construct: expressed in transfected cells; host or cells: Chinese Hamster Ovary (CHO) cells, stably transfected, cotransfected with a CRE-luciferase reporter
T1 sequence (P23945 18-695): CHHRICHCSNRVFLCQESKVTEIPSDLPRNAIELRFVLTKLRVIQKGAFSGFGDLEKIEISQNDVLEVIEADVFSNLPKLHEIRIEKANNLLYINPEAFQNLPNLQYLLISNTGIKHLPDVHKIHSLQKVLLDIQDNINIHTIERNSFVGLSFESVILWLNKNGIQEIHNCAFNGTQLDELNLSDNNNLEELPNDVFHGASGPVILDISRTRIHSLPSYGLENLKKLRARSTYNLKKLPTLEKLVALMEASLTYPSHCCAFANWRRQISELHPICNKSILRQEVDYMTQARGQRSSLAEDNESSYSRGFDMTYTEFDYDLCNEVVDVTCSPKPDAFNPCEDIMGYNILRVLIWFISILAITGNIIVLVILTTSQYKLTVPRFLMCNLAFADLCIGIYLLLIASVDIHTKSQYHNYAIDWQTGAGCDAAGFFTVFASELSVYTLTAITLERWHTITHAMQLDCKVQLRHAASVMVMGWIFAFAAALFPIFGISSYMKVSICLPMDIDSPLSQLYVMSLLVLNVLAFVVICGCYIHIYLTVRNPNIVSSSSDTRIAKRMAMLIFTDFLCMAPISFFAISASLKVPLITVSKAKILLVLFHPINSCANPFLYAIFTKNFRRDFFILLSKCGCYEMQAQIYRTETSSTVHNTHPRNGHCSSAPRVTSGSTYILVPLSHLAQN
Format: cell-based
Experimental: FSH activity of compounds were tested in Chinese Hamster Ovary (CHO) cells stably transfected with the human FSH receptor and cotransfected with a cAMP responsive element (CRE)/promotor directing the expression of a firefly luciferase reporter gene. Binding of ligand to the Gs-coupled FSH receptor will result in an increase of cAMP, which in turn will induce an increased transactivation of the luciferase reporter construct. To test antagonistic properties recombinant FSH in a concentration that induces approximately 80% of the maximal stimulation of cAMP accumulation in the absence of test compound was added (rec-hFSH; 10 mU/ml). The luciferase signal was quantified using a luminescence counter. For test compounds, EC50 values (concentration of test compound causing half-maximal (50%) stimulation or reduction) were calculated. For that purpose the software program GraphPad PRISM, version 3.0 (GraphPad software Inc., San Diego) was used.

| Compound | EC50 |
| --- | --- |
| CC(=O)N1c2ccc(NC(=O)c3ccc(-c4ccccc4)cc3)cc2C(C)(c2ccc(OCCCN3CCOCC3)cc2)CC1(C)C (stereo not drawn) [Example 3, Biphenyl-4-carboxylic acid {1-acetyl-2,2,4-trimethyl-4-[4-(3-morpholin-4-yl-propoxy)-phenyl]-1,2,3,4-tetrahydro-quinolin-6-yl}-amide] | < 100 nM |
| CC(=O)N1c2ccc(NC(=O)c3ccc(-c4ccccc4)cc3)cc2C(C)(c2ccc(OCc3ccccn3)cc2)CC1(C)C (stereo not drawn) [Example 4, Biphenyl-4-carboxylic acid {1-acetyl-2,2,4-trimethyl-4-[4-(pyridin-2-ylmethoxy)-phenyl]-1,2,3,4-tetrahydro-quinolin-6-yl}-amide] | < 100 nM |
| CC(=O)N1c2ccc(NC(=O)c3ccc(-c4ccccc4)cc3)cc2C(C)(c2ccc(OCc3ccncc3)cc2)CC1(C)C (stereo not drawn) [Example 7, Biphenyl-4-carboxylic acid {1-acetyl-2,2,4-trimethyl-4-[4-(pyridin-4-ylmethoxy)-phenyl]-1,2,3,4-tetrahydro-quinolin-6-yl}-amide] | < 100 nM |
| CC(=O)N1c2ccc(NC(=O)c3ccc(-c4ccccc4)cc3)cc2C(C)(c2ccc(OCC(=O)NCc3ccco3)cc2)CC1(C)C (stereo not drawn) [Example 16] | < 100 nM |
| CC(=O)N1c2ccc(NC(=O)c3ccccc3)cc2C(C)(c2ccc(OCCN3CCOCC3)cc2)CC1(C)C (stereo not drawn) [Example 36, N-{1-Acetyl-2,2,4-trimethyl-4-[4-(2-morpholin-4-yl-ethoxy)-phenyl]-1,2,3,4-tetrahydro-quinolin-6-yl}-benzamide] | < 100 nM |
| CC(=O)N1c2ccc(NC(=O)c3ccc(C(C)(C)C)cc3)cc2C(C)(c2ccc(OCCN3CCOCC3)cc2)CC1(C)C (stereo not drawn) [Example 37, N-{1-Acetal-2,2,4-trimethyl-4-[4-(2-morpholin-4-ethoxy)-phenyl]-1,2,3,4-tetrahydro-quinolin-6-yl}-4-tert-butyl-benzamide] | < 100 nM |
| CC(=O)N1c2ccc(NC(=O)c3ccc(Br)cc3)cc2C(C)(c2ccc(OCCN3CCOCC3)cc2)CC1(C)C (stereo not drawn) [Example 39, N-{1-Acetyl-2,2,4-trimethyl-4-[4-(2-morpholin-4-yl-ethoxy)-phenyl]-1,2,3,4-tetrahydro-quinolin-6-yl}-4-bromo-benzamide] | < 100 nM |
| CC(=O)N1c2ccc(NC(=O)c3ccc(N(C)C)cc3)cc2C(C)(c2ccc(OCCN3CCOCC3)cc2)CC1(C)C (stereo not drawn) [Example 41, N-{1-Acetyl-2,2,4-trimethyl-4-[4-(2-morpholin-4-yl-ethoxy)-phenyl]-1,2,3,4-tetrahydro-quinolin-6-yl}-4-dimethylamino-benzamide] | < 100 nM |
| CC(=O)N1c2ccc(NC(=O)c3cccc(C(F)(F)F)c3)cc2C(C)(c2ccc(OCCN3CCOCC3)cc2)CC1(C)C (stereo not drawn) [Example 42, N-{1-Acetyl-2,2,4-trimethyl-4-[4-(2-morpholin-4-yl-ethoxy)-phenyl]-1,2,3,4-tetrahydro-quinolin-6-yl}-3-trifluoromethyl-benzamide] | < 100 nM |
